As usually defined, the DC50 is the midpoint of the concentration-degradation curve. In general, Dmax refers to the greatest extent of degradation seen. High values mean deep degradation, low ones shallow degradation.

Molecules are shown by their SMILES. A value given as a limit tells only on which side of the number the result lay.

The target in this experiment is T1, KRas-G12D (Homo sapiens, UniProt P01116, G12D).
T1 construct: insert the HiBiT tag onto the N-terminus of one or more of the endogenous KRas alleles; host or cells: AsPC-1 HiBiT-KRasG12D knock-in clone (one tagged allele, two untagged KRasG12D alleles)
Nature of the experiment: HiBiT Degradation Assay (G12D), AsPC-1 HiBiT-KRasG12D cells, 24 hr. Format: cell-based. Conditions: for DC50: AsPC-1 cells; for Dmax: ASPC1, AsPC-1 cells, maximum degradation observed. The procedure, abridged: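 AsPC-1 cells with CRISPR N-terminal HiBiT knock-in on one endogenous KRasG12D allele, treated 24 hr at 37° C with compound titrations in 0.5% DMSO. Lytic HiBiT luminescence normalized to DMSO, fitted to a 4-parameter model for DC50 and Dmax. Parallel alamar blue (4 hr) checked viability.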

T1 sequence (P01116 1-188 isoform P01116-2 G12D): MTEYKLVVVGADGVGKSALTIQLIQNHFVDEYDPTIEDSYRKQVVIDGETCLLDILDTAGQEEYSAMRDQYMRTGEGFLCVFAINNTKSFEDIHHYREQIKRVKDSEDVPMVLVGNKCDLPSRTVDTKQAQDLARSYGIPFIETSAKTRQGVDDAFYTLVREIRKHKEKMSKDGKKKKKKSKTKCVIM

On to `C#Cc1c(F)ccc2cc(O)cc(-c3ncc4c(N5CC6CCC(C5)N6)nc(OCCN5CCC(CN6CCC(CC7CCN(c8ccc9c(c8F)n(C(C)C)c(=O)n9C8CCC(=O)NC8=O)CC7)CC6)CC5)nc4c3F)c12` (centres unmarked) [Compound 167, 3-{5-[4-({1-[(1-{2-[(4-{3,8-diazabicyclo[3.2.1]octan-3-yl}-7-(8-ethynyl-7-fluoro-3-hydroxynaphthalen-1-yl)-8-fluoropyrido[4,3-d]pyrimidin-2-yl)oxy]ethyl}piperidin-4-yl)methyl]piperidin-4-yl}methyl)piperidin-1-yl]-4-fluoro-2-oxo-3-(propan-2-yl)-2,3-dihydro-1H-1,3-benzodiazol-1-yl}piperidine-2,6-dione], for which the half-maximal degradation concentration (DC50) is < 5.1 µM.

For `C#Cc1c(F)ccc2cc(O)cc(-c3ncc4c(N5CC6CCC(C5)N6)nc(OCCN5CCC6(CC5)CCN(CC5CCN(c7ccc8c(c7F)CN(C7CCC(=O)NC7=O)C8=O)CC5)CC6)nc4c3F)c12` (centres unmarked) [Compound 121, 3-[5-[4-[[9-[2-[4-(3,8-diazabicyclo[3.2.1]octan-3-yl)-7-(8-ethynyl-7-fluoro-3-hydroxy-1-naphthyl)-8-fluoro-pyrido[4,3-d]pyrimidin-2-yl]oxyethyl]-3,9-diazaspiro[5.5]undecan-3-yl]methyl]-1-piperidyl]-4-fluoro-1-oxo-isoindolin-2-yl]piperidine-2,6-dione], the Dmax is > 70% and the DC50 was < 5.1 µM.

For `C#Cc1c(F)ccc2cc(O)cc(-c3ncc4c(N5CC6CCC(C5)N6)nc(OCCN5CCC(CN6CCC(CN7CCN(c8ccc9c(c8F)CN(C8CCC(=O)NC8=O)C9=O)CC7)CC6)CC5)nc4c3F)c12` (centres unmarked) [Compound 223, 3-{5-[4-({1-[(1-{2-[(4-{3,8-diazabicyclo[3.2.1]octan-3-yl}-7-(8-ethynyl-7-fluoro-3-hydroxynaphthalen-1-yl)-8-fluoropyrido[4,3-d]pyrimidin-2-yl)oxy]ethyl}piperidin-4-yl)methyl]piperidin-4-yl}methyl)piperazin-1-yl]-4-fluoro-1-oxo-2,3-dihydro-1H-isoindol-2-yl}piperidine-2,6-dione], the Dmax was > 70% and the DC50 is < 5.1 µM.

For `CCc1cccc2cc(O)cc(-c3ncc4c(N5CC6CCC(C5)N6)nc(OCCN5CCC(CC6CCN(c7ccc8c(c7)C(=O)N(C7CCC(=O)NC7=O)C8=O)CC6)CC5)nc4c3F)c12` (centres unmarked) [Compound 67, 5-[4-[[1-[2-[4-(3,8-diazabicyclo[3.2.1]octan-3-yl)-7-(8-ethyl-3-hydroxy-1-naphthyl)-8-fluoro-pyrido[4,3-d]pyrimidin-2-yl]oxyethyl]-4-piperidyl]methyl]-1-piperidyl]-2-(2,6-dioxo-3-piperidyl)isoindoline-1,3-dione], the DC50 is > 1 µM.

As to `C#Cc1c(F)ccc2cc(O)cc(-c3ncc4c(N5CC6CCC(C5)N6)nc(OCCN5CCC(CN6CC7(CCN(c8cc(C)c9c(c8F)CN(C8CCC(=O)NC8=O)C9=O)CC7)C6)CC5)nc4c3F)c12` (centres unmarked) [Compound 154, 3-(5-{2-[(1-{2-[(4-{3,8-diazabicyclo[3.2.1]octan-3-yl}-7-(8-ethynyl-7-fluoro-3-hydroxynaphthalen-1-yl)-8-fluoropyrido[4,3-d]pyrimidin-2-yl)oxy]ethyl}piperidin-4-yl)methyl]-2,7-diazaspiro[3.5]nonan-7-yl}-4-fluoro-7-methyl-1-oxo-2,3-dihydro-1H-isoindol-2-yl)piperidine-2,6-dione], the Dmax is > 70% and the DC50 is < 5.1 µM.

For the molecule `CCc1cccc2cc(O)cc(-c3ncc4c(N5CC6CCC(C5)N6)nc(OC[C@@H]5C[C@@H](OC6CCN(CC7CCN(c8cccc9c8CN(C8CCC(=O)NC8=O)C9=O)CC7)CC6)CN5C)nc4c3F)c12` (stereo partly drawn) [Compound 139, 3-(4-{4-[(4-{[(3R,5S)-5-{[(4-{3,8-diazabicyclo[3.2.1]octan-3-yl}-7-(8-ethyl-3-hydroxynaphthalen-1-yl)-8-fluoropyrido[4,3-d]pyrimidin-2-yl)oxy]methyl}-1-methylpyrrolidin-3-yl]oxy}piperidin-1-yl)methyl]piperidin-1-yl}-1-oxo-2,3-dihydro-1H-isoindol-2-yl)piperidine-2,6-dione], the Dmax is > 70% and the DC50 is < 5.1 µM.

For `C#Cc1c(F)ccc2cc(O)cc(-c3ncc4c(N5CC6CCC(C5)N6)nc(OC[C@@H]5C[C@@H](OC6CCN(CC7CN(c8ccc9c(c8)CN(C8CCC(=O)NC8=O)C9=O)C7)CC6)CN5C)nc4c3F)c12` (stereo partly drawn) [Compound 164, 3-(5-{3-[(4-{[(3R,5S)-5-{[(4-{3,8-diazabicyclo[3.2.1]octan-3-yl}-7-(8-ethynyl-7-fluoro-3-hydroxynaphthalen-1-yl)-8-fluoropyrido[4,3-d]pyrimidin-2-yl)oxy]methyl}-1-methylpyrrolidin-3-yl]oxy}piperidin-1-yl)methyl]azetidin-1-yl}-1-oxo-2,3-dihydro-1H-isoindol-2-yl)piperidine-2,6-dione], the Dmax was > 70% and the DC50 was < 5.1 µM.

Turning to `C#Cc1c(F)ccc2cc(O)cc(-c3ncc4c(N5CC6CCC(C5)N6)nc(OCCN5CCC(F)(CN6CCN(CC7CCN(c8ccc9c(c8)n(C)c(=O)n9C8CCC(=O)NC8=O)CC7)CC6)CC5)nc4c3F)c12` (centres unmarked) [Compound 200, 3-[5-[4-[[4-[[1-[2-[4-(3,8-diazabicyclo[3.2.1]octan-3-yl)-7-(8-ethynyl-7-fluoro-3-hydroxy-1-naphthyl)-8-fluoro-pyrido[4,3-d]pyrimidin-2-yl]oxyethyl]-4-fluoro-4-piperidyl]methyl]piperazin-1-yl]methyl]-1-piperidyl]-3-methyl-2-oxo-benzimidazol-1-yl]piperidine-2,6-dione], the Dmax is > 70% and the DC50 is < 5.1 µM.

Consider `C#Cc1c(F)ccc2cc(O)cc(-c3ncc4c(N5CC6CCC(C5)N6)nc(OC[C@@H]5C[C@@H](OC6CCN(CC7CCN(c8ccc9c(c8F)n(C)c(=O)n9C8CCC(=O)NC8=O)CC7)CC6)CN5C)nc4c3F)c12` (stereo partly drawn) [Compound 213, 3-(5-{4-[(4-{[(3R,5S)-5-{[(4-{3,8-diazabicyclo[3.2.1]octan-3-yl}-7-(8-ethynyl-7-fluoro-3-hydroxynaphthalen-1-yl)-8-fluoropyrido[4,3-d]pyrimidin-2-yl)oxy]methyl}-1-methylpyrrolidin-3-yl]oxy}piperidin-1-yl)methyl]piperidin-1-yl}-4-fluoro-3-methyl-2-oxo-2,3-dihydro-1H-1,3-benzodiazol-1-yl)piperidine-2,6-dione], for which the Dmax was > 70% and the DC50 is < 5.1 µM.

For `C#Cc1c(F)ccc2cc(O)cc(-c3ncc4c(N5CC6CCC(C5)N6)nc(OCCN5CCC(CN6CCN(CC7CCN(c8ccc9c(c8F)n(C(C)C)c(=O)n9C8CCC(=O)NC8=O)CC7)CC6)CC5)nc4c3F)c12` (centres unmarked) [Compound 159, 3-{5-[4-({4-[(1-{2-[(4-{3,8-diazabicyclo[3.2.1]octan-3-yl}-7-(8-ethynyl-7-fluoro-3-hydroxynaphthalen-1-yl)-8-fluoropyrido[4,3-d]pyrimidin-2-yl)oxy]ethyl}piperidin-4-yl)methyl]piperazin-1-yl}methyl)piperidin-1-yl]-4-fluoro-2-oxo-3-(propan-2-yl)-2,3-dihydro-1H-1,3-benzodiazol-1-yl}piperidine-2,6-dione], the Dmax is > 70% and the DC50 was < 5.1 µM.

As to `C#Cc1c(F)ccc2cc(O)cc(-c3ncc4c(N5CC6CCC(C5)N6)nc(OCCN5CCC(CN6CCN(CC7CCN(c8ccc9c(c8Cl)CN(C8CCC(=O)NC8=O)C9=O)CC7)CC6)CC5)nc4c3F)c12` (centres unmarked) [Compound 219, 3-[4-chloro-5-[4-[[4-[[1-[2-[4-(3,8-diazabicyclo[3.2.1]octan-3-yl)-7-(8-ethynyl-7-fluoro-3-hydroxy-1-naphthyl)-8-fluoro-pyrido[4,3-d]pyrimidin-2-yl]oxyethyl]-4-piperidyl]methyl]piperazin-1-yl]methyl]-1-piperidyl]-1-oxo-isoindolin-2-yl]piperidine-2,6-dione], the Dmax was > 70% and the DC50 was < 5.1 µM.

`CCc1cccc2cc(O)cc(-c3ncc4c(N5CC6CCC(C5)N6)nc(OCCN5CCC(CN(C)[C@H]6C[C@H](Oc7ccc8c(c7)C(=O)N(C7CCC(=O)NC7=O)C8=O)C6)CC5)nc4c3F)c12` (some centres unmarked) [Compound 11] yielded a DC50 of 0.25 to 1 µM.

Turning to `CCc1c(F)ccc2cc(O)cc(-c3ncc4c(N5CC6CCC(C5)N6)nc(OC[C@@H]5C[C@@H](OC6CCN(CC7CCN(c8ccc9c(c8)CN(C8CCC(=O)NC8=O)C9=O)CC7)CC6)CN5C)nc4c3F)c12` (stereo partly drawn) [Compound 85, 3-(5-{4-[(4-{[(3R,5S)-5-{[(4-{3,8-diazabicyclo[3.2.1]octan-3-yl}-7-(8-ethyl-7-fluoro-3-hydroxynaphthalen-1-yl)-8-fluoropyrido[4,3-d]pyrimidin-2-yl)oxy]methyl}-1-methylpyrrolidin-3-yl]oxy}piperidin-1-yl)methyl]piperidin-1-yl}-1-oxo-2,3-dihydro-1H-isoindol-2-yl)piperidine-2,6-dione], the Dmax was > 70% and the half-maximal degradation concentration (DC50) is < 5.1 µM.

Consider `C#Cc1c(F)ccc2cc(O)cc(-c3ncc4c(N5CC6CCC(C5)N6)nc(OCCN5CCC(F)(CC6CCN(CC7CCN(c8ccc9c(c8)CN(C8CCC(=O)NC8=O)C9=O)CC7)CC6)CC5)nc4c3F)c12` (centres unmarked) [Compound 91, 3-[5-[4-[[4-[[1-[2-[4-(3,8-diazabicyclo [3.2.1]octan-3-yl)-7-(8-ethynyl-7-fluoro-3-hydroxy-1-naphthyl)-8-fluoro-pyrido[4,3-d]pyrimidin-2-yl]oxyethyl]-4-fluoro-4-piperidyl]methyl]-1-piperidyl]methyl]-1-piperidyl]-1-oxo-isoindolin-2-yl]piperidine-2,6-dione], for which the Dmax is > 70% and the DC50 was < 5.1 µM.

For the molecule `C#Cc1c(F)ccc2cc(O)cc(-c3ncc4c(C5CC6CCC(C5)N6)nc(OCCN5CCC6(CC5)CCN(CC5CCN(c7ccc8c(c7)CN(C7CCC(=O)NC7=O)C8=O)CC5)CC6)nc4c3F)c12` (centres unmarked) [Compound 70], the greatest degradation seen (Dmax) was > 70% and the DC50 is < 5.1 µM.

For the molecule `CCc1cccc2cc(O)cc(-c3ncc4c(N5CC6CCC(C5)N6)nc(OCCN5CCN(CC6CCN(c7ccc(N8CCC(=O)NC8=O)c(F)c7)CC6)CC5)nc4c3F)c12` [Compound 14], the Dmax was ≤ 25% and the DC50 lay within 0.25 to 1 µM.

The record behind these values is patent publication US12448399B2, “Cereblon-based KRAS degrading PROTACs and uses related thereto” (Arvinas Operations, Inc., priority 2023, dated 2025).
